Assay results: patent US12441959B2, “Composition containing organic ammonium salt” (MIYOSHI OIL & FAT CO., LTD., priority 2019, dated 2025)

Assay: Surface resistance measurement with high resistance meter
Assay type: physicochemical
Conditions: 0.7 g (in terms of anhydride) applied
Protocol: Surface resistance measurements were performed on compound 1 that had not undergone emulsification adjustment and on glycerin and the emulsification composition that had already undergone emulsification adjustment. In the comparison of compound 1 that had not undergone emulsification adjustment and glycerin, 0.7 g (content in terms of anhydride) of each of the compound 1 and glycerin was applied to an artificial leather made of polyurethane, followed by using a high resistance meter (Stack TR-2 by Tokyo Electronics Co., Ltd.) to measure a surface resistance value. Further, in the comparison by the emulsified composition, 0.05 g of the emulsification compositions shown in Table 11 were each applied to an artificial leather made of polyurethane to measure a surface resistance value using a high resistance meter.
Further, 0.7 g (content in terms of anhydride) of sodium lactate was applied to an artificial leather made of polyurethane before drying the same to volatilize water. As the result, the coating surface was turned into a solid state whose surface resistance value, measured in a similar manner as above, turned out to be 2×10^8Ω; confirmed were a non-volatility of the compound 1 (lower than 1×10^8Ω) and an effect of liquidity at 25° C. (capability of evenly coating a coating object).

surface resistance value (not emulsified, liquid state at measurement) | Compound | surface resistance value (dried to volatilize water, solid state)
 | CC(O)C(=O)[O-].[Na+] (centres unmarked) [sodium lactate] | 2×10^8 Ω
5×10^8 Ω | OCC(O)CO [glycerin] | 
